From ChEMBL document CHEMBL6096639, “Discovery of the first selective and potent PROTAC degrader for the pseudokinase TRIB2” (Eur J Med Chem, 2025)
Active and inactive are the calls of the source. No cut-off for these calls is given here.

Experiments:
[1] = biological target: T1, Protein cereblon/Tribbles homolog 2 (Homo sapiens, UniProt Q96SW2+Q92519); test: PROTAC activity at CRBN/TRIB2 in human PC-3 cells assessed as induction of TRIB2 degradation by measuring maximal efficacy at 100 nM measured after 24 hrs by immunoblot analysis relative to control; type: cell-based
Target sequence in this assay (Q96SW2 whole entry, looked up, one chain of several): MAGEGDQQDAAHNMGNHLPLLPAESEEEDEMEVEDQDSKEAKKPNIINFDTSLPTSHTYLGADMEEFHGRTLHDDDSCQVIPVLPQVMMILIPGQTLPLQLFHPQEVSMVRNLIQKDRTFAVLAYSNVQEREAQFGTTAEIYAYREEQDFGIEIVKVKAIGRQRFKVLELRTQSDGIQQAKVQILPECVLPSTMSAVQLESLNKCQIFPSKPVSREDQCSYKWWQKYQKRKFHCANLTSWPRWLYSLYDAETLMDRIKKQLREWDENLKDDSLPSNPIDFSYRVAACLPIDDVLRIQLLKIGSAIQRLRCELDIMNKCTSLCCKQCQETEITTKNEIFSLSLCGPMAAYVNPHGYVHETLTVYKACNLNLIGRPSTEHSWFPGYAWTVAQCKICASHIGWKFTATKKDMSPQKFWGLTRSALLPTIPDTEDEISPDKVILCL

[2] = Antiproliferative activity against human LTL-331R-CL cells assessed as cell viability for 5 days by CTG assay; type: functional, cell-based; conditions: 120 h
PC-3 [3] = test: Antiproliferative activity against human PC-3 cells assessed as cell viability for 5 days by CTG assay; type: functional, cell-based; conditions: PC-3, 120 h
[4] = biological target: T1, Protein cereblon/Tribbles homolog 2; test: PROTAC activity at CRBN/TRIB2 in human PC-3 cells assessed as induction of TRIB2 degradation for 24 hrs by immunoblot analysis; type: cell-based
[5] = biological target: T1, Protein cereblon/Tribbles homolog 2; test: PROTAC activity at CRBN/TRIB2 in human NCI-H660 cells assessed as induction of TRIB2 degradation at 1 uM by immunoblotting analysis; type: cell-based
Target sequence in this assay (Q96SW2 whole entry, looked up, one chain of several): as above

[6] = biological target: T1, Protein cereblon/Tribbles homolog 2; test: PROTAC activity at CRBN/TRIB2 in human LTL-331R-CL cells assessed as induction of TRIB2 degradation at 1 uM by immunoblotting analysis; type: cell-based
Target sequence in this assay (Q96SW2 whole entry, looked up, one chain of several): as above

[7] = biological target: T2, von Hippel-Lindau disease tumor suppressor/Tribbles homolog 2 (Homo sapiens) (UniProt P40337+Q92519); test: PROTAC activity at VHL/TRIB2 in human PC-3 cells assessed as induction of TRIB2 downregulation at 1000 nM for 24 hrs by immunoblotting analysis; type: cell-based
[8] = biological target: T2, von Hippel-Lindau disease tumor suppressor/Tribbles homolog 2 (Homo sapiens); test: PROTAC activity at VHL/TRIB2 in human PC-3 cells assessed as induction of TRIB2 degradation at 100 nM for 24 hrs by immunoblotting analysis; type: cell-based
[9] = biological target: T1, Protein cereblon/Tribbles homolog 2; test: PROTAC activity at CRBN/TRIB2 in human PC-3 cells assessed as half maximal degradation by measuring half life at 500 nM by immunoblotting analysis; type: cell-based
Target sequence in this assay (Q96SW2 whole entry, looked up, one chain of several): as above

[10] = biological target: T3, Tribbles homolog 2 (Homo sapiens) (UniProt Q92519); test: Induction of thermal stabilization of TRIB2 in human PC-3 cells […] at 2 uM preincubated for 3 hrs followed by compound washout and incubated under 45 to 50 degreeC for 3 mins by CETSA based immunoblotting analysis; type: cell-based
T3 sequence (whole entry): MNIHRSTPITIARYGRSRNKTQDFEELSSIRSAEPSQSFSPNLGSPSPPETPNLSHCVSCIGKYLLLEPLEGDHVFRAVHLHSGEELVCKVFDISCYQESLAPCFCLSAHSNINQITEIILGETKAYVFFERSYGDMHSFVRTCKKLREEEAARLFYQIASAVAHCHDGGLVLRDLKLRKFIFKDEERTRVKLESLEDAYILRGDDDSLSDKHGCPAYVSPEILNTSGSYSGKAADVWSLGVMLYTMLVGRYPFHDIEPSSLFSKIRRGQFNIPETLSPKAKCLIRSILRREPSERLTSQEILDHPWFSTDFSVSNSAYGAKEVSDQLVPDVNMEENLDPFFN

[11] = biological target: T1, Protein cereblon/Tribbles homolog 2; test: PROTAC activity at CRBN/TRIB2 in human PC-3 cells assessed as induction of TRIB2 degradation at 500 nM in presence of 1 uM bortezomib proteasome inhibitor pretreatment for 16 hrs by Western blot analysis; type: cell-based
Target sequence in this assay (Q96SW2 whole entry, looked up, one chain of several): as the sequence (Q96SW2 whole entry, looked up, one chain of several) above

[12] = biological target: T1, Protein cereblon/Tribbles homolog 2; test: PROTAC activity at CNRB/TRIB2 in human PC-3 cells assessed as induction of TRIB2 degradation at 0.5 uM pretreated with pomalidomide followed by compound addition and measured after 16 hrs by immunoblotting assay; type: cell-based
Target sequence in this assay (Q96SW2 whole entry, looked up, one chain of several): as the sequence (Q96SW2 whole entry, looked up, one chain of several) above

[13] = biological target: T1, Protein cereblon/Tribbles homolog 2; test: PROTAC activity at CNRB/TRIB2 in human LTL-331R-CL cells assessed as induction of TRIB2 degradation at 1 uM for 4 hrs by immunoblotting assay; type: cell-based
PC-3 [14] = test: Antiproliferative activity against human PC-3 cells assessed as cell viability at 1 uM by CTG assay; type: functional, cell-based
LTL-331R-CL = test: Antiproliferative activity against human LTL-331R-CL cells assessed as cell viability at 1 uM by CTG assay; type: functional, cell-based
[15] = biological target: T1, Protein cereblon/Tribbles homolog 2; test: PROTAC activity at CNRB/TRIB2 in human LTL-331R-CL cells assessed as induction of TRIB2 degradation at 1 uM for 4 hrs by comprehensive proteomic analysis using a tandem mass tag (TMT) labeled mass spectrometry; type: cell-based
A549 = test: Antiproliferative activity against human A549 cells assessed as cell viability; type: functional
HepG2 = test: Antiproliferative activity against human HepG2 cells assessed as cell viability; type: functional
Tribbles homolog 2 = biological target: T4, Tribbles homolog 2 (Homo sapiens, UniProt Q92519); test: Inhibition of TRIB2 (unknown origin) assessed as reduction in ATP binding affinity incubated for 120 mins in presence of Mg/ATP by radiometric kinase assay
T4 sequence (Q92519 whole entry): T3 sequence (whole entry)

[16] = biological target: T1, Protein cereblon/Tribbles homolog 2; test: PROTAC activity at CRBN/TRIB2 in human PC-3 cells assessed as induction of TRIB2 degradation by measuring maximal efficacy at 1 nM measured after 24 hrs by immunoblot analysis relative to control; type: cell-based

T2 sequence (P40337 whole entry, looked up, one chain of several): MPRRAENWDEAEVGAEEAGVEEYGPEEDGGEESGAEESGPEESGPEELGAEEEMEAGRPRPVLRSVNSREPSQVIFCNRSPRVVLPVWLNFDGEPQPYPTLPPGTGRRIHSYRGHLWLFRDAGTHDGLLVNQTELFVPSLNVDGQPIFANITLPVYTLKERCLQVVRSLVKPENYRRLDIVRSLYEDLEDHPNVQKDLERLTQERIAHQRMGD

SMILES: O=C1CCC(N2C(=O)c3ccc(NCCCCCCCC(=O)N4CCc5ccc(NC(=O)c6n[nH]c7ccc(-c8cccnc8F)cc67)cc5C4)cc3C2=O)C(=O)N1 (stereo unspecified)
- Emax [1]: 58.2%

SMILES: CN1C(=O)CCC(N2C(=O)c3ccc(NCCCCCCCCCC(=O)N4CCc5ccc(NC(=O)c6n[nH]c7ccc(-c8cccnc8F)cc67)cc5C4)cc3C2=O)C1=O (stereo unspecified)
- IC50 [2]: > 30000 nM
- IC50 (PC-3 [3]): > 5000 nM

SMILES: Nc1cccc2c1C(=O)N(C1CCC(=O)NC1=O)C2=O (stereo unspecified) [POMALIDOMIDE]
- IC50 [2]: > 30000 nM
- IC50 (PC-3 [3]): > 5000 nM

SMILES: O=C1CCC(N2C(=O)c3ccc(NCCCCCCCCCC(=O)N4CCc5ccc(NC(=O)c6n[nH]c7ccc(-c8cccnc8F)cc67)cc5C4)cc3C2=O)C(=O)N1 (stereo unspecified)
- Emax [1]: 92%
- Activity [4]: Dose-dependent-effect
- DC50 [4]: 16.8 nM
- Activity [5]: Time-dependent-effect
- Activity [6]: Active
- Activity [7]: Active; Mild Trib2 Degradation Observed
- Activity [8]: 100%
- T1/2 [9]: > 5.5 h
- Activity [10]: Active
- Activity [11]: inactive
- Activity [12]: inactive
- Activity [13]: Active
- Activity (PC-3 [14]): Active
- Activity (LTL-331R-CL): Active
- IC50 [2]: 30.4 nM
- IC50 (PC-3 [3]): 3.9 nM
- Activity [15]: Active

SMILES: O=C(Nc1ccc2c(c1)CNCC2)c1n[nH]c2ccc(-c3cccnc3F)cc12
- Activity (A549): 12%
- Activity (HepG2): 10%
- Activity [10]: Active
- IC50 (Tribbles homolog 2): 65.2 nM
- IC50 [2]: 868 nM
- IC50 (PC-3 [3]): 802 nM

SMILES: O=C1CCC(N2C(=O)c3ccc(NCCCC(=O)N4CCc5ccc(NC(=O)c6n[nH]c7ccc(-c8cccnc8F)cc67)cc5C4)cc3C2=O)C(=O)N1 (stereo unspecified)
- Emax [1]: 84.1%

SMILES: O=C1CCC(N2C(=O)c3ccc(NCCCCCC(=O)N4CCc5ccc(NC(=O)c6n[nH]c7ccc(-c8cccnc8F)cc67)cc5C4)cc3C2=O)C(=O)N1 (stereo unspecified)
- Emax [16]: 24.5%
- Emax [1]: 85.6%
